Assay results reported in ChEMBL document CHEMBL1201862, “PubChem BioAssay data set” (2004).
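How tested: cells in 96-well plates exposed to compound for 48 hours at five concentrations. Abbreviation: GI50, concentration required for 50% inhibition of growth.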 Activity calls are given as the source filed them. Rule as the data show it: active = GI50 up to about 1.1 µM and inactive = higher.

How the values were obtained:
Test in all cases: NCI tumour cell line growth inhibition, 48 h
SK-MEL-28 = system: SK-MEL-28
KM-20L2 = system: KM-20L2
HOP-92 = system: HOP-92
HT-29 = system: HT-29
DLD-1 = system: DLD-1
Malme-3M = system: Malme-3M
RXF 393 = system: RXF 393
EKVX = system: EKVX
ACHN = system: ACHN
SF-268 = system: SF-268
SK-MEL-2 = system: SK-MEL-2
RXF 631 = system: RXF 631
M19-MEL = system: M19-MEL
NCI-H522 = system: NCI-H522
UACC-62 = system: UACC-62
MOLT-4 = system: MOLT-4
CAKI-1 = system: CAKI-1
CCRF-CEM = system: CCRF-CEM
COLO 205 = system: COLO 205
M14 = system: M14
UO-31 = system: UO-31
DMS-114 = system: DMS-114
LOX IMVI = system: LOX IMVI
HOP-62 = system: HOP-62
SF-539 = system: SF-539
OVCAR-4 = system: OVCAR-4
SN12C = system: SN12C
TK-10 = system: TK-10
HCT-116 = system: HCT-116
SK-MEL-5 = system: SK-MEL-5
NCI-H226 = system: NCI-H226
NCI-H23 = system: NCI-H23
LXFL 529 = system: LXFL 529
UACC-257 = system: UACC-257
DMS-273 = system: DMS-273
SF-295 = system: SF-295
IGROV-1 = system: IGROV-1
OVCAR-3 = system: OVCAR-3
A549 = system: A549
NCI-H460 = system: NCI-H460
OVCAR-8 = system: OVCAR-8
SNB-75 = system: SNB-75
SNB-19 = system: SNB-19
SK-OV-3 = system: SK-OV-3
HCC 2998 = system: HCC 2998
HCT-15 = system: HCT-15
HOP-18 = system: HOP-18
KM12 = system: KM12
HL-60 = system: HL-60
786-0 = system: 786-0
SW-620 = system: SW-620
XF498 = system: XF498
SNB-78 = system: SNB-78
K562 = system: K562
SR = system: SR
U-251 = system: U-251
A498 = system: A498
OVCAR-5 = system: OVCAR-5
RPMI-8226 = system: RPMI-8226

CC(C)(C)OC(=O)N[C@H]1CC(=O)c2ccccc2N(CC(=O)O)C1=O
GI50 (SK-MEL-28): > 100 µM (inactive)
GI50 (KM-20L2): > 100 µM (inactive)
GI50 (HOP-92): > 100 µM (inactive)
GI50 (HT-29): > 100 µM (inactive)
GI50 (DLD-1): > 100 µM (inactive)
GI50 (Malme-3M): 19.9 µM (inactive)
GI50 (RXF 393): > 100 µM (inactive)
GI50 (EKVX): > 100 µM (inactive)
GI50 (ACHN): > 100 µM (inactive)
GI50 (SF-268): > 100 µM (inactive)
GI50 (SK-MEL-2): > 100 µM (inactive)
GI50 (RXF 631): > 100 µM (inactive)
GI50 (M19-MEL): > 100 µM (inactive)
GI50 (NCI-H522): > 100 µM (inactive)
GI50 (UACC-62): > 100 µM (inactive)
GI50 (MOLT-4): > 100 µM (inactive)
GI50 (CAKI-1): > 100 µM (inactive)
GI50 (CCRF-CEM): > 100 µM (inactive)
GI50 (COLO 205): > 100 µM (inactive)
GI50 (M14): > 100 µM (inactive)
GI50 (UO-31): > 100 µM (inactive)
GI50 (DMS-114): > 100 µM (inactive)
GI50 (LOX IMVI): > 100 µM (inactive)
GI50 (HOP-62): > 100 µM (inactive)
GI50 (SF-539): > 100 µM (inactive)
GI50 (OVCAR-4): > 100 µM (inactive)
GI50 (SN12C): > 100 µM (inactive)
GI50 (TK-10): > 100 µM (inactive)
GI50 (HCT-116): 26.5 µM (inactive)
GI50 (SK-MEL-5): > 100 µM (inactive)
GI50 (NCI-H226): > 100 µM (inactive)
GI50 (NCI-H23): > 100 µM (inactive)
GI50 (LXFL 529): > 100 µM (inactive)
GI50 (UACC-257): > 100 µM (inactive)
GI50 (DMS-273): > 100 µM (inactive)
GI50 (SF-295): > 100 µM (inactive)
GI50 (IGROV-1): > 100 µM (inactive)
GI50 (OVCAR-3): > 100 µM (inactive)
GI50 (A549): > 100 µM (inactive)
GI50 (NCI-H460): > 100 µM (inactive)
GI50 (OVCAR-8): > 100 µM (inactive)
GI50 (SNB-75): 81.1 µM (inactive)
GI50 (SNB-19): > 100 µM (inactive)
GI50 (SK-OV-3): > 100 µM (inactive)
GI50 (HCC 2998): > 100 µM (inactive)
GI50 (HCT-15): > 100 µM
GI50 (HOP-18): > 100 µM (inactive)
GI50 (KM12): > 100 µM (inactive)
GI50 (HL-60): > 100 µM (inactive)
GI50 (786-0): > 100 µM (inactive)
GI50 (SW-620): > 100 µM (inactive)

CC1CC[P+](c2ccccc2)(c2ccccc2)CC1
GI50 (SK-MEL-28): > 100 µM (inactive)
GI50 (KM-20L2): 89.1 µM (inactive)
GI50 (HT-29): 79.3 µM (inactive)
GI50 (DLD-1): > 100 µM (inactive)
GI50 (Malme-3M): > 100 µM (inactive)
GI50 (RXF 393): > 100 µM (inactive)
GI50 (EKVX): 68.7 µM (inactive)
GI50 (ACHN): > 100 µM (inactive)
GI50 (XF498): 25.1 µM (inactive)
GI50 (SNB-78): > 100 µM (inactive)
GI50 (SK-MEL-2): 77.3 µM (inactive)
GI50 (M19-MEL): 27.6 µM (inactive)
GI50 (NCI-H522): 40.5 µM (inactive)
GI50 (UACC-62): 58.5 µM (inactive)
GI50 (MOLT-4): > 100 µM (inactive)
GI50 (K562): 91.6 µM (inactive)
GI50 (CCRF-CEM): 67.6 µM (inactive)
GI50 (COLO 205): 18.7 µM (inactive)
GI50 (SR): 55.5 µM (inactive)
GI50 (M14): 88.1 µM (inactive)
GI50 (UO-31): > 100 µM (inactive)
GI50 (DMS-114): 50.1 µM (inactive)
GI50 (LOX IMVI): 51.3 µM (inactive)
GI50 (HOP-62): > 100 µM (inactive)
GI50 (SF-539): 78.3 µM (inactive)
GI50 (U-251): 30.5 µM (inactive)
GI50 (SN12C): > 100 µM (inactive)
GI50 (TK-10): > 100 µM (inactive)
GI50 (HCT-116): > 100 µM (inactive)
GI50 (SK-MEL-5): 20.8 µM (inactive)
GI50 (NCI-H226): > 100 µM (inactive)
GI50 (NCI-H23): 72.6 µM (inactive)
GI50 (LXFL 529): 31.7 µM (inactive)
GI50 (A498): > 100 µM (inactive)
GI50 (UACC-257): 33.6 µM (inactive)
GI50 (DMS-273): 68.9 µM (inactive)
GI50 (SF-295): > 100 µM (inactive)
GI50 (IGROV-1): 98.2 µM (inactive)
GI50 (OVCAR-3): 46.2 µM (inactive)
GI50 (A549): > 100 µM (inactive)
GI50 (NCI-H460): > 100 µM (inactive)
GI50 (OVCAR-8): > 100 µM (inactive)
GI50 (SNB-75): 62.4 µM (inactive)
GI50 (SNB-19): 92.3 µM (inactive)
GI50 (SK-OV-3): > 100 µM (inactive)
GI50 (OVCAR-5): > 100 µM (inactive)
GI50 (HCC 2998): 20.8 µM (inactive)
GI50 (RPMI-8226): 21.2 µM (inactive)
GI50 (HCT-15): > 100 µM
GI50 (HOP-18): > 100 µM (inactive)
GI50 (KM12): 92.5 µM (inactive)
GI50 (HL-60): 24.5 µM (inactive)
GI50 (786-0): > 100 µM (inactive)
GI50 (SW-620): > 100 µM (inactive)

O=P(O)(O)C1CCCC(P(=O)(O)O)N1 (configuration not stated)
GI50 (SK-MEL-28): > 100 µM (inactive)
GI50 (KM-20L2): > 100 µM (inactive)
GI50 (HOP-92): > 100 µM (inactive)
GI50 (HT-29): > 100 µM (inactive)
GI50 (RXF 393): > 100 µM (inactive)
GI50 (EKVX): > 100 µM (inactive)
GI50 (ACHN): > 100 µM (inactive)
GI50 (SNB-78): > 100 µM (inactive)
GI50 (SF-268): > 100 µM (inactive)
GI50 (RXF 631): > 100 µM (inactive)
GI50 (M19-MEL): > 100 µM (inactive)
GI50 (NCI-H522): > 100 µM (inactive)
GI50 (MOLT-4): > 100 µM (inactive)
GI50 (CCRF-CEM): > 100 µM (inactive)
GI50 (SR): > 100 µM (inactive)
GI50 (M14): > 100 µM (inactive)
GI50 (UO-31): > 100 µM (inactive)
GI50 (DMS-114): > 100 µM (inactive)
GI50 (HOP-62): > 100 µM (inactive)
GI50 (U-251): > 100 µM (inactive)
GI50 (TK-10): > 100 µM (inactive)
GI50 (HCT-116): > 100 µM (inactive)
GI50 (NCI-H226): > 100 µM (inactive)
GI50 (NCI-H23): > 100 µM (inactive)
GI50 (A498): > 100 µM (inactive)
GI50 (UACC-257): > 100 µM (inactive)
GI50 (DMS-273): > 100 µM (inactive)
GI50 (SF-295): > 100 µM (inactive)
GI50 (IGROV-1): > 100 µM (inactive)
GI50 (A549): > 100 µM (inactive)
GI50 (NCI-H460): > 100 µM (inactive)
GI50 (OVCAR-8): > 100 µM (inactive)
GI50 (SNB-19): > 100 µM (inactive)
GI50 (SK-OV-3): > 100 µM (inactive)
GI50 (OVCAR-5): > 100 µM (inactive)
GI50 (KM12): > 100 µM (inactive)
GI50 (HL-60): > 100 µM (inactive)
